# In PMC9784969, “SARS-CoV-2 Inhibitors Identified by Phenotypic Analysis of a Collection of Viral RNA-Binding Molecules” (Pharmaceuticals, 2022):
# Where two headings read alike, the source gives them in different places.
# What was measured:
# [1] = in vitro; conditions: African green monkey, uninfected Vero E6 cells
# [2] = tested on: SARS-CoV-2; assay type: cell-based; conditions: 48 h post-infection
# [3] = tested on: 5_SL2+3 RNA; assay: ligand-based 1H NMR (1D, CPMG, wLOGSY); assay type: binding, SARS-CoV-2
# [4] = tested on: SCoV2 USA-WA1/2020; assay type: cell-based; conditions: 293T-ACE2, MOI 2, 8-h single cycle; added at +2 h relative to infection
# [5] = tested on: 3_S2m RNA; assay: ligand-based 1H NMR (1D, CPMG, wLOGSY); assay type: binding, SARS-CoV-2
# [6] = tested on: ORF7b RNA; assay: ligand-based 1H NMR (1D, CPMG, wLOGSY); assay type: binding, SARS-CoV-2
# [7] = tested on: SARS-CoV-2 USA-WA1/2020; assay: microbe, parasite or virus in culture; assay type: cell-based; conditions: Severe acute respiratory syndrome coronavirus 2, 48 h; 293T-ACE2 cells, MOI 0.25, two days; read-out: SARS-CoV-2 EC50
# [8] = tested on: ATTL RNA; assay: ligand-based 1H NMR (1D, CPMG, wLOGSY); assay type: binding, SARS-CoV-2
# [9] = molecular target: 3_S2m-23fl RNA hairpin; assay: fluorescence intensity binding assay; set-up: species or system SARS-CoV-2
# Procedure: The 3_S2m-23fl RNA oligonucleotide used in fluorescence intensity experiments was purchased HPLC-purified from Integrated DNA Technologies (Coralville, IA, USA). […] The mixture of tRNAs from E. coli MRE 600 (identified as tRNA^mix) used to evaluate specificity was obtained from Roche (Basel, Switzerland).
# 3_S2m-23fl (at 100 nM concentration) was snap-cooled in a buffer containing sodium phosphate pH 6.6, 0 or 150 mM NaCl, and 0.1 mM EDTA and incubated with increasing amounts of compound. The specificity of the RNA–ligand interactions was evaluated by repeating the assays in the presence of a 100-fold molar excess (10 μM) of tRNA^mix. The equilibrium dissociation constants Kd were obtained by fitting the dose–response curves to a two-state binding model [41] with Prism software (GraphPad Software, San Diego, CA, USA). All fluorescence binding assays were carried out three times for each molecule and condition.
# [10] = in vitro; conditions: human, uninfected 293T-ACE2 cells
# [11] = tested on: SARS-CoV-2 USA-WA1/2020; assay: microbe, parasite or virus in culture; assay type: cell-based; conditions: Severe acute respiratory syndrome coronavirus 2, Vero C1008, 48 h, Vero E6 cells, MOI 0.025, two days; read-out: SARS-CoV-2 EC50
# [12] = tested on: 3_S2m RNA; assay: RNA-based 1H NMR (TOCSY) titration; assay type: binding, SARS-CoV-2; conditions: RNA:ligand up to 1:4
# Procedure: The RNA samples were previously diafiltrated into an aqueous solution containing 25 mM potassium phosphate (pH 6.2), 50 mM KCl and 0.1 mM EDTA, and the titration experiments were carried out at 27 °C using 50 μM RNA samples in 100% D2O. The 3_S2m titrations were duplicated at 25 °C using 120 μM RNA samples and additionally acquiring NOESY spectra (250 ms mixing time) at 1:0 and 1:4 ratios. For this system, the chemical shift perturbation analyses included 63 H1’, H2’, and aromatic 3_S2m resonances. The isolated 3_S2m hairpin was studied at two different temperatures (25 and 35 °C) using 120 and 500 μM RNA samples and similar TOCSY and NOESY (120 and 250 ms mixing times) experiments. […] The relaxation delay for NOESY and TOCSY acquisition was 2 and 1.5 s, respectively.
# [13] = tested on: PRF RNA; assay: ligand-based 1H NMR (1D, CPMG, wLOGSY); assay type: binding, SARS-CoV-2
# [14] = average of aliphatic protons, RNA:ligand 1:100 (clomiphene) or 1:50 (trim, qz2)
# [15] = average of aromatic protons, RNA:ligand 1:100 (clomiphene) or 1:50 (trim, qz2)
smiles,measurement,setting,value
NCCCc1cn(C(c2ccccc2)(c2ccccc2)c2ccccc2)cn1 [trim],CC50 at 2 days,[1],> 90 µM
same,viral titers in supernatants (TCID50),[2],below the limit of detection
same,CPMG variation,[3]; [14],31.0%
same,LB,[3]; [14],19.1%
same,LOGSY factor,[3]; [14],49.4%
same,CPMG variation,[3]; [15],39.0%
same,LB,[3]; [15],15.9%
same,LOGSY factor,[3]; [15],131.1%
same,CPMG variation,"[3]; trim peak A, RNA:ligand 1:50",32.9%
same,LB,"[3]; trim peak A, RNA:ligand 1:50",15.7%
same,LOGSY factor,"[3]; trim peak A, RNA:ligand 1:50",55.3%
same,CPMG variation,"[3]; trim peak B, RNA:ligand 1:50",36.9%
same,LB,"[3]; trim peak B, RNA:ligand 1:50",20.8%
same,LOGSY factor,"[3]; trim peak B, RNA:ligand 1:50",43.4%
same,CPMG variation,"[3]; trim peak C, RNA:ligand 1:50",40.3%
same,LB,"[3]; trim peak C, RNA:ligand 1:50",14.9%
same,LOGSY factor,"[3]; trim peak C, RNA:ligand 1:50",131%
same,CPMG variation,"[3]; trim peak D, RNA:ligand 1:50",38.6%
same,LB,"[3]; trim peak D, RNA:ligand 1:50",16.0%
same,LOGSY factor,"[3]; trim peak D, RNA:ligand 1:50",126%
same,CPMG variation,"[3]; trim peak E, RNA:ligand 1:50",38.9%
same,LB,"[3]; trim peak E, RNA:ligand 1:50",16.7%
same,LOGSY factor,"[3]; trim peak E, RNA:ligand 1:50",135%
same,nucleocapsid protein expression,[4],strongly inhibited
same,CPMG variation,[5]; [14],15.7%
same,LB,[5]; [14],9.33%
same,LOGSY factor,[5]; [14],39.4%
same,CPMG variation,[5]; [15],24.0%
same,LB,[5]; [15],8.82%
same,LOGSY factor,[5]; [15],54.4%
same,CPMG variation,"[5]; trim peak A, RNA:ligand 1:50",15.8%
same,LB,"[5]; trim peak A, RNA:ligand 1:50",5.70%
same,LOGSY factor,"[5]; trim peak A, RNA:ligand 1:50",45.5%
same,CPMG variation,"[5]; trim peak B, RNA:ligand 1:50",22.1%
same,LB,"[5]; trim peak B, RNA:ligand 1:50",11.1%
same,LOGSY factor,"[5]; trim peak B, RNA:ligand 1:50",33.3%
same,CPMG variation,"[5]; trim peak C, RNA:ligand 1:50",22.2%
same,LB,"[5]; trim peak C, RNA:ligand 1:50",11.7%
same,LOGSY factor,"[5]; trim peak C, RNA:ligand 1:50",54.5%
same,CPMG variation,"[5]; trim peak D, RNA:ligand 1:50",24.2%
same,LB,"[5]; trim peak D, RNA:ligand 1:50",4.64%
same,LOGSY factor,"[5]; trim peak D, RNA:ligand 1:50",70.5%
same,CPMG variation,"[5]; trim peak E, RNA:ligand 1:50",26.4%
same,LB,"[5]; trim peak E, RNA:ligand 1:50",14.3%
same,LOGSY factor,"[5]; trim peak E, RNA:ligand 1:50",38.2%
same,CPMG variation,[6]; [14],38.7%
same,LB,[6]; [14],13.5%
same,LOGSY factor,[6]; [14],103%
same,CPMG variation,[6]; [15],30.2%
same,LB,[6]; [15],4.23%
same,LOGSY factor,[6]; [15],208%
same,CPMG variation,"[6]; trim peak A, RNA:ligand 1:50",34.9%
same,LB,"[6]; trim peak A, RNA:ligand 1:50",15.8%
same,LOGSY factor,"[6]; trim peak A, RNA:ligand 1:50",75.4%
same,CPMG variation,"[6]; trim peak B, RNA:ligand 1:50",44.0%
same,LB,"[6]; trim peak B, RNA:ligand 1:50",12.4%
same,LOGSY factor,"[6]; trim peak B, RNA:ligand 1:50",132%
same,CPMG variation,"[6]; trim peak C, RNA:ligand 1:50",18.3%
same,LB,"[6]; trim peak C, RNA:ligand 1:50",-3.43%
same,LOGSY factor,"[6]; trim peak C, RNA:ligand 1:50",210%
same,CPMG variation,"[6]; trim peak D, RNA:ligand 1:50",41.8%
same,LB,"[6]; trim peak D, RNA:ligand 1:50",7.94%
same,LOGSY factor,"[6]; trim peak D, RNA:ligand 1:50",218%
same,CPMG variation,"[6]; trim peak E, RNA:ligand 1:50",20.4%
same,LB,"[6]; trim peak E, RNA:ligand 1:50",4.46%
same,LOGSY factor,"[6]; trim peak E, RNA:ligand 1:50",196%
same,EC50,[7],0.33 µM
same,CPMG variation,[8]; [14],11.7%
same,LB,[8]; [14],10.0%
same,LOGSY factor,[8]; [14],5.15%
same,CPMG variation,[8]; [15],-12.7%
same,LB,[8]; [15],9.31%
same,LOGSY factor,[8]; [15],4.35%
same,CPMG variation,"[8]; trim peak A, RNA:ligand 1:50",8.20%
same,LB,"[8]; trim peak A, RNA:ligand 1:50",12.4%
same,LOGSY factor,"[8]; trim peak A, RNA:ligand 1:50",7.80%
same,CPMG variation,"[8]; trim peak B, RNA:ligand 1:50",17.6%
same,LB,"[8]; trim peak B, RNA:ligand 1:50",8.81%
same,LOGSY factor,"[8]; trim peak B, RNA:ligand 1:50",2.50%
same,CPMG variation,"[8]; trim peak C, RNA:ligand 1:50",-36.9%
same,LB,"[8]; trim peak C, RNA:ligand 1:50",1.54%
same,LOGSY factor,"[8]; trim peak C, RNA:ligand 1:50",4.56%
same,CPMG variation,"[8]; trim peak D, RNA:ligand 1:50",8.68%
same,LB,"[8]; trim peak D, RNA:ligand 1:50",7.54%
same,LOGSY factor,"[8]; trim peak D, RNA:ligand 1:50",4.51%
same,CPMG variation,"[8]; trim peak E, RNA:ligand 1:50",-32.0%
same,LB,"[8]; trim peak E, RNA:ligand 1:50",23.3%
same,LOGSY factor,"[8]; trim peak E, RNA:ligand 1:50",3.98%
same,Kd,"[9]; 0 mM NaCl, pH 6.6, 25 °C, read-out: Kd",19.3 µM
same,Kd,"[9]; 150 mM NaCl, 100-fold molar excess of tRNA, read-out: Kd-tRNA",8.97 µM
same,Kd,"[9]; 150 mM NaCl, pH 6.6, 25 °C, no tRNA, read-out: Kd",12.5 µM
same,CC50 at 2 days,[10],23.5 µM
same,EC50,[11],3.5 µM
same,RNA chemical shift perturbations,[12],strongest RNA chemical shift perturbations
same,CPMG variation,[13]; [14],14.0%
same,LB,[13]; [14],13.9%
same,LOGSY factor,[13]; [14],29.0%
same,CPMG variation,[13]; [15],15.5%
same,LB,[13]; [15],-22.5%
same,LOGSY factor,[13]; [15],50.5%
same,CPMG variation,"[13]; trim peak A, RNA:ligand 1:50",13.0%
same,LB,"[13]; trim peak A, RNA:ligand 1:50",20.1%
same,LOGSY factor,"[13]; trim peak A, RNA:ligand 1:50",37.0%
same,CPMG variation,"[13]; trim peak B, RNA:ligand 1:50",18.9%
same,LB,"[13]; trim peak B, RNA:ligand 1:50",10.8%
same,LOGSY factor,"[13]; trim peak B, RNA:ligand 1:50",21.0%
same,CPMG variation,"[13]; trim peak C, RNA:ligand 1:50",9.72%
same,LB,"[13]; trim peak C, RNA:ligand 1:50",-39.2%
same,LOGSY factor,"[13]; trim peak C, RNA:ligand 1:50",16.7%
same,CPMG variation,"[13]; trim peak D, RNA:ligand 1:50",19.7%
same,LB,"[13]; trim peak D, RNA:ligand 1:50",3.93%
same,LOGSY factor,"[13]; trim peak D, RNA:ligand 1:50",46.0%
same,CPMG variation,"[13]; trim peak E, RNA:ligand 1:50",12.5%
same,LB,"[13]; trim peak E, RNA:ligand 1:50",-58.9%
same,LOGSY factor,"[13]; trim peak E, RNA:ligand 1:50",88.8%
